# Laboratory results: PMC8699473, “An Easily Expandable Multi-Drug LC-MS Assay for the Simultaneous Quantification of 57 Oral Antitumor Drugs in Human Plasma” (Cancers, 2021)
# Assays:
# [1] = Autosampler stability of ready for injection samples; format: physicochemical, human
# [2] = Freeze-thaw stability in spiked pooled human plasma; format: physicochemical
# [3] = design: method as in supplement references [1-55] as printed per drug; settings: minimum steady-state blood plasma concentration after multiple dose administration; ref supplement references [1-55] per drug; cited from earlier work
# [4] = Short-term stability in spiked pooled human plasma (bench-top, 4 °C, 56 °C)
# [5] = Long-term stability in spiked pooled human plasma
compound,measurement,setting,value
Cn1cnc2c(F)c(Nc3ccc(Br)cc3F)c(C(=O)NOCCO)cc21 [Binimetinib],"Autosampler (24h, 4°C) Accuracy [%]",[1]; validation standard 2xLLOV,104.7%
same,"Autosampler (72h, 4°C) Accuracy [%]",[1]; validation standard 2xLLOV,101.6%
same,"Autosampler (24h, 4°C) Accuracy [%]",[1]; validation standard LLOV,103.1%
same,"Autosampler (72h, 4°C) Accuracy [%]",[1]; validation standard LLOV,98.1%
same,"Autosampler (24h, 4°C) Accuracy [%]",[1]; validation standard MOV,105.0%
same,"Autosampler (72h, 4°C) Accuracy [%]",[1]; validation standard MOV,95.8%
same,"Autosampler (24h, 4°C) Accuracy [%]",[1]; validation standard ULOV,102.1%
same,"Autosampler (72h, 4°C) Accuracy [%]",[1]; validation standard ULOV,102.4%
same,Freeze-Thaw Accuracy [%],[2]; validation standard 2xLLOV,92.6%
same,Freeze-Thaw Accuracy [%],[2]; validation standard LLOV,93.8%
same,Freeze-Thaw Accuracy [%],[2]; validation standard MOV,100.1%
same,Freeze-Thaw Accuracy [%],[2]; validation standard ULOV,105.2%
same,cmin,[3],53.3 ng/mL
same,"Short-time stability (1h, 56°C) Accuracy [%]",[4]; validation standard 2xLLOV,55.9%
same,"Short-time stability (24h, 4°C, without daylight) Accuracy [%]",[4]; validation standard 2xLLOV,105.5%
same,"Short-time stability (24h, RT, with daylight) Accuracy [%]",[4]; validation standard 2xLLOV,89.3%
same,"Short-time stability (24h, RT, without daylight) Accuracy [%]",[4]; validation standard 2xLLOV,86.4%
same,"Short-time stability (1h, 56°C) Accuracy [%]",[4]; validation standard LLOV,68.1%
same,"Short-time stability (24h, 4°C, without daylight) Accuracy [%]",[4]; validation standard LLOV,117.1%
same,"Short-time stability (24h, RT, with daylight) Accuracy [%]",[4]; validation standard LLOV,111.6%
same,"Short-time stability (24h, RT, without daylight) Accuracy [%]",[4]; validation standard LLOV,106.0%
same,"Short-time stability (1h, 56°C) Accuracy [%]",[4]; validation standard MOV,42.6%
same,"Short-time stability (24h, 4°C, without daylight) Accuracy [%]",[4]; validation standard MOV,94.8%
same,"Short-time stability (24h, RT, with daylight) Accuracy [%]",[4]; validation standard MOV,86.5%
same,"Short-time stability (24h, RT, without daylight) Accuracy [%]",[4]; validation standard MOV,89.2%
same,"Short-time stability (1h, 56°C) Accuracy [%]",[4]; validation standard ULOV,36.7%
same,"Short-time stability (24h, 4°C, without daylight) Accuracy [%]",[4]; validation standard ULOV,96.8%
same,"Short-time stability (24h, RT, with daylight) Accuracy [%]",[4]; validation standard ULOV,101.8%
same,"Short-time stability (24h, RT, without daylight) Accuracy [%]",[4]; validation standard ULOV,97.3%
same,"Long-term stability, 1 month, -20°C Accuracy [%]",[5]; validation standard 2xLLOV,94.8%
same,"Long-term stability, 1 month, -80°C Accuracy [%]",[5]; validation standard 2xLLOV,97.4%
same,"Long-term stability, 2 month, -20°C Accuracy [%]",[5]; validation standard 2xLLOV,105.7%
same,"Long-term stability, 2 month, -80°C Accuracy [%]",[5]; validation standard 2xLLOV,106.4%
same,"Long-term stability, 3 month, -20°C Accuracy [%]",[5]; validation standard 2xLLOV,99.5%
same,"Long-term stability, 3 month, -80°C Accuracy [%]",[5]; validation standard 2xLLOV,104.4%
same,"Long-term stability, 6 weeks, 4°C, without daylight Accuracy [%]",[5]; validation standard 2xLLOV,95.3%
same,"Long-term stability, 1 month, -20°C Accuracy [%]",[5]; validation standard LLOV,103.4%
same,"Long-term stability, 1 month, -80°C Accuracy [%]",[5]; validation standard LLOV,106.3%
same,"Long-term stability, 2 month, -20°C Accuracy [%]",[5]; validation standard LLOV,116.3%
same,"Long-term stability, 2 month, -80°C Accuracy [%]",[5]; validation standard LLOV,124.3%
same,"Long-term stability, 3 month, -20°C Accuracy [%]",[5]; validation standard LLOV,105.4%
same,"Long-term stability, 3 month, -80°C Accuracy [%]",[5]; validation standard LLOV,104.6%
same,"Long-term stability, 6 weeks, 4°C, without daylight Accuracy [%]",[5]; validation standard LLOV,104.1%
same,"Long-term stability, 1 month, -20°C Accuracy [%]",[5]; validation standard MOV,92.3%
same,"Long-term stability, 1 month, -80°C Accuracy [%]",[5]; validation standard MOV,94.4%
same,"Long-term stability, 2 month, -20°C Accuracy [%]",[5]; validation standard MOV,95.9%
same,"Long-term stability, 2 month, -80°C Accuracy [%]",[5]; validation standard MOV,96.6%
same,"Long-term stability, 3 month, -20°C Accuracy [%]",[5]; validation standard MOV,97.9%
same,"Long-term stability, 3 month, -80°C Accuracy [%]",[5]; validation standard MOV,98.7%
same,"Long-term stability, 6 weeks, 4°C, without daylight Accuracy [%]",[5]; validation standard MOV,109.9%
same,"Long-term stability, 1 month, -20°C Accuracy [%]",[5]; validation standard ULOV,99.6%
same,"Long-term stability, 1 month, -80°C Accuracy [%]",[5]; validation standard ULOV,97.2%
same,"Long-term stability, 2 month, -20°C Accuracy [%]",[5]; validation standard ULOV,99.2%
same,"Long-term stability, 2 month, -80°C Accuracy [%]",[5]; validation standard ULOV,101.1%
same,"Long-term stability, 3 month, -20°C Accuracy [%]",[5]; validation standard ULOV,98.9%
same,"Long-term stability, 3 month, -80°C Accuracy [%]",[5]; validation standard ULOV,102.6%
same,"Long-term stability, 6 weeks, 4°C, without daylight Accuracy [%]",[5]; validation standard ULOV,99.7%
COc1cc(Nc2c(C#N)cnc3cc(OCCCN4CCN(C)CC4)c(OC)cc23)c(Cl)cc1Cl [Bosutinib],Freeze-Thaw Accuracy [%],[2]; validation standard 2xLLOV,89.9%
same,Freeze-Thaw Accuracy [%],[2]; validation standard LLOV,102.2%
same,Freeze-Thaw Accuracy [%],[2]; validation standard MOV,92.6%
same,Freeze-Thaw Accuracy [%],[2]; validation standard ULOV,94.6%
same,cmin,[3],147 ng/mL
CC[C@H](Nc1ncnc2[nH]cnc12)c1nc2cccc(F)c2c(=O)n1-c1ccccc1 [Idelalisib],"Autosampler (24h, 4°C) Accuracy [%]",[1]; validation standard 2xLLOV,103.2%
same,"Autosampler (72h, 4°C) Accuracy [%]",[1]; validation standard 2xLLOV,98.6%
same,"Autosampler (24h, 4°C) Accuracy [%]",[1]; validation standard LLOV,109.4%
same,"Autosampler (72h, 4°C) Accuracy [%]",[1]; validation standard LLOV,109.4%
same,"Autosampler (24h, 4°C) Accuracy [%]",[1]; validation standard MOV,102.6%
same,"Autosampler (72h, 4°C) Accuracy [%]",[1]; validation standard MOV,97.1%
same,"Autosampler (24h, 4°C) Accuracy [%]",[1]; validation standard ULOV,103.9%
same,"Autosampler (72h, 4°C) Accuracy [%]",[1]; validation standard ULOV,101.4%
same,Freeze-Thaw Accuracy [%],[2]; validation standard 2xLLOV,98.2%
same,Freeze-Thaw Accuracy [%],[2]; validation standard LLOV,110.6%
same,Freeze-Thaw Accuracy [%],[2]; validation standard MOV,96.5%
same,Freeze-Thaw Accuracy [%],[2]; validation standard ULOV,101.5%
same,cmin,[3],318 ng/mL
CC(=O)c1c(C)c2cnc(Nc3ccc(N4CCNCC4)cn3)nc2n(C2CCCC2)c1=O [Palbociclib],"Autosampler (24h, 4°C) Accuracy [%]",[1]; validation standard 2xLLOV,99.9%
same,"Autosampler (72h, 4°C) Accuracy [%]",[1]; validation standard 2xLLOV,100.1%
same,"Autosampler (24h, 4°C) Accuracy [%]",[1]; validation standard LLOV,99.4%
same,"Autosampler (72h, 4°C) Accuracy [%]",[1]; validation standard LLOV,97.9%
same,"Autosampler (24h, 4°C) Accuracy [%]",[1]; validation standard MOV,101.0%
same,"Autosampler (72h, 4°C) Accuracy [%]",[1]; validation standard MOV,96.9%
same,"Autosampler (24h, 4°C) Accuracy [%]",[1]; validation standard ULOV,103.9%
same,"Autosampler (72h, 4°C) Accuracy [%]",[1]; validation standard ULOV,102.9%
